Which melting point does the source give for `CS(=O)(=O)c1ccc(Oc2ccc3[nH]c(C4=NCC(CC(=O)O)S4)cc3c2)cn1` (stereo not drawn) [Example 52, [2-(5-{[6-(Methylsulfonyl)pyridin-3-yl]oxy}-1H-indol-2-yl)-4,5-dihydro-1,3-thiazol-5-yl]acetic acid] here?
The melting point was 205 to 208 °C.

For `CNC(=O)CC1CN=C(c2cc3cc(Oc4ccc(S(C)(=O)=O)nc4)ccc3[nH]2)S1` (stereo not drawn) [Example 79], which melting point is on record?
Its melting point is 172 to 173 °C.

For `Cc1cc(Oc2ccc(S(C)(=O)=O)nc2)cc2cc(C3=NCC(CC(=O)O)S3)[nH]c12` (stereo not drawn) [Example 71, [2-(7-Methyl-5-{[6-(methylsulfonyl)pyridin-3-yl]oxy}-1H-indol-2-yl)-4,5-dihydro-1,3-thiazol-5-yl]acetic acid], which melting point is on record?
Its melting point is 248 to 249 °C.

Which melting point does the source give for `CS(=O)(=O)c1ccc(Oc2ccc3[nH]c(C4=NCC(CC(=O)N5CCOCC5)S4)cc3c2)cn1` (stereo not drawn) [Example 68, 5-{[6-(Methylsulfonyl)pyridin-3-yl]oxy}-2-[5-(2-morpholin-4-yl-2-oxoethyl)-4,5-dihydro-1,3-thiazol-2-yl]-1H-indole] here?
Its melting point is 168 to 169 °C.

Which melting point does the source give for `CCc1cc(Oc2ccc(S(C)(=O)=O)nc2)cc2cc(C3=NCC(CC(=O)NC)S3)[nH]c12` (stereo not drawn) [Example 62, 2-[2-(7-Ethyl-5-{[6-(methylsulfonyl)pyridin-3-yl]oxy}-1H-indol-2-yl)-4,5-dihydro-1,3-thiazol-5-yl]-N-methylacetamide] here?
The melting point was 189 to 190 °C.

Which melting point does the source give for `COCCNC(=O)CC1CN=C(c2cc3cc(Oc4ccc(S(C)(=O)=O)nc4)ccc3[nH]2)S1` (stereo not drawn) [Example 66, N-(2-Methoxyethyl)-2-[2-(5-{[6-(methylsulfonyl)pyridin-3-yl]oxy}-1H-indol-2-yl)-4,5-dihydro-1,3-thiazol-5-yl]acetamide] here?
The melting point was 174 to 175 °C.

Which melting point does the source give for `Cc1cc(Oc2ccc(S(C)(=O)=O)nc2)cc2cc(C3=NCC(CC(=O)NC[C@@H](C)O)S3)[nH]c12` (stereo partly drawn) [Example 77, N-[(2R)-2-Hydroxypropyl]-2-[2-(7-methyl-5-{[6-(methylsulfonyl)pyridin-3-yl]oxy}-1H-indol-2-yl)-4,5-dihydro-1,3-thiazol-5-yl]acetamide] here?
The melting point was 168 to 169 °C.

With `CS(=O)(=O)c1ccc(Oc2cc(OC3CCOCC3)c3[nH]c(C4=NCC(CC(N)=O)S4)cc3c2)cn1` (stereo not drawn) [Example 31, 2-{2-[5-{[6-(Methylsulfonyl)pyridin-3-yl]oxy}-7-(tetrahydro-2H-pyran-4-yloxy)-1H-indol-2-yl]-4,5-dihydro-1,3-thiazol-5-yl}acetamide] as the compound, how does the melting point read?
Its melting point is 136 to 138 °C.

With `CC1(CNC(=O)CC2CN=C(c3cc4cc(Oc5ccc(S(C)(=O)=O)nc5)cc(OC5CCOCC5)c4[nH]3)S2)COC1` (stereo not drawn) [Example 40, N-[(3-Methyloxetan-3-yl)methyl]-2-{2-[5-{[6-(methylsulfonyl)pyridin-3-yl]oxy}-7-(tetrahydro-2H-pyran-4-yloxy)-1H-indol-2-yl]-4,5-dihydro-1,3-thiazol-5-yl}acetamide] as the compound, how does the melting point read?
The melting point was 189 to 190 °C.

Which melting point does the source give for `CS(=O)(=O)c1ccc(Oc2cc(OC3CCOCC3)c3[nH]c(C4=NCC(CC(N)=O)S4)cc3c2)cc1` (stereo not drawn) [Example 5, 2-(2-{5-[4-(Methylsulfonyl)phenoxy]-7-(tetrahydro-2H-pyran-4-yloxy)-1H-indol-2-yl}-4,5-dihydro-1,3-thiazol-5-yl)acetamide] here?
The melting point was 176 to 177 °C.

Which melting point does the source give for `Cc1cc(Oc2ccc(S(C)(=O)=O)nc2)cc2cc(C3=NCC(CC(=O)NCC(C)(C)O)S3)[nH]c12` (stereo not drawn) [Example 75, N-(2-Hydroxy-2-methylpropyl)-2-[2-(7-methyl-5-{[6-(methylsulfonyl)pyridin-3-yl]oxy}-1H-indol-2-yl)-4,5-dihydro-1,3-thiazol-5-yl]acetamide] here?
The melting point was 184 to 186 °C.

For `CCc1cc(Oc2ccc(S(C)(=O)=O)nc2)cc2cc(C3=NCC(CC(=O)O)S3)[nH]c12` (stereo not drawn) [Example 60, [2-(7-Ethyl-5-{[6-(methylsulfonyl)pyridin-3-yl]oxy}-1H-indol-2-yl)-4,5-dihydro-1,3-thiazol-5-yl]acetic acid], which melting point is on record?
Its melting point is 230 to 232 °C.

For `CCNC(=O)CC1CN=C(c2cc3cc(Oc4ccc(S(C)(=O)=O)nc4)cc(CC)c3[nH]2)S1` (stereo not drawn) [Example 63, N-Ethyl-2-[2-(7-ethyl-5-{[6-(methylsulfonyl)pyridin-3-yl]oxy}-1H-indol-2-yl)-4,5-dihydro-1,3-thiazol-5-yl]acetamide], which melting point is on record?
Its melting point is 227 to 229 °C.

Which melting point does the source give for `Cc1cc(Oc2ccc(S(C)(=O)=O)nc2)cc2cc(C3=NCC(CC(=O)NC[C@H](C)O)S3)[nH]c12` (stereo partly drawn) [Example 76, N-[(2S)-2-Hydroxypropyl]-2-[2-(7-methyl-5-{[6-(methylsulfonyl)pyridin-3-yl]oxy}-1H-indol-2-yl)-4,5-dihydro-1,3-thiazol-5-yl]acetamide] here?
Its melting point is 170 to 171 °C.

Which melting point does the source give for `CC(C)(O)CNC(=O)CC1CN=C(c2cc3cc(Oc4ccc(S(C)(=O)=O)nc4)cc(OC4CCOCC4)c3[nH]2)S1` (stereo not drawn) [Example 39, N-(2-Hydroxy-2-methylpropyl)-2-{2-[5-{[6-(methylsulfonyl)pyridin-3-yl]oxy}-7-(tetrahydro-2H-pyran-4-yloxy)-1H-indol-2-yl]-4,5-dihydro-1,3-thiazol-5-yl}acetamide] here?
Its melting point is 195 to 196 °C.

With `CS(=O)(=O)c1ccc(Oc2cc(OC3CCOCC3)c3[nH]c(C4=NCC(CC(N)=O)S4)cc3c2)nc1` (stereo not drawn) [Example 16, 2-{2-[5-{[5-(Methylsulfonyl)pyridin-2-yl]oxy}-7-(tetrahydro-2H-pyran-4-yloxy)-1H-indol-2-yl]-4,5-dihydro-1,3-thiazol-5-yl}acetamide] as the compound, how does the melting point read?
Its melting point is 188 to 190 °C.

For `CS(=O)(=O)c1ccc(Oc2cc(OC3CCOCC3)c3[nH]c(C4=NCC(CCO)S4)cc3c2)nc1` (stereo not drawn) [Example 13, 2-{2-[5-{[5-(Methylsulfonyl)pyridin-2-yl]oxy}-7-(tetrahydro-2H-pyran-4-yloxy)-1H-indol-2-yl]-4,5-dihydro-1,3-thiazol-5-yl}ethanol], which melting point is on record?
The melting point was 165 to 166 °C.

For `CN(C)C(=O)CC1CN=C(c2cc3cc(Oc4ccc(S(C)(=O)=O)nc4)ccc3[nH]2)S1` (stereo not drawn) [Example 64, N,N-Dimethyl-2-[2-(5-{[6-(methylsulfonyl)pyridin-3-yl]oxy}-1H-indol-2-yl)-4,5-dihydro-1,3-thiazol-5-yl]acetamide], which melting point is on record?
The melting point was 190 to 191 °C.

With `CS(=O)(=O)Cc1ccc(Oc2cc(OC3CCOCC3)c3[nH]c(C4=NCC(CC(N)=O)S4)cc3c2)cn1` (stereo not drawn) [Example 26, 2-{2-[5-({6-[(Methylsulfonyl)methyl]pyridin-3-yl}oxy)-7-(tetrahydro-2H-pyran-4-yloxy)-1H-indol-2-yl]-4,5-dihydro-1,3-thiazol-5-yl}acetamide] as the compound, how does the melting point read?
The melting point was 164 to 167 °C.

Which melting point does the source give for `CNC(=O)CC1CN=C(c2cc3cc(Oc4ccc(S(C)(=O)=O)nc4)cc(OC4CCOCC4)c3[nH]2)S1` (stereo not drawn) [Example 34, N-methyl-2-{2-[5-{[6-(Methylsulfonyl)pyridin-3-yl]oxy}-7-(tetrahydro-2H-pyran-4-yloxy)-1H-indol-2-yl]-4,5-dihydro-1,3-thiazol-5-yl}acetamide] here?
Its melting point is 143 to 144 °C.

For `CS(=O)(=O)c1ccc(Oc2cc(OC3CCOCC3)c3[nH]c(C4=NCC(CC(=O)NCCO)S4)cc3c2)cn1` (stereo not drawn) [Example 44, N-(2-Hydroxyethyl)-2-{2-[5-{[6-(methylsulfonyl)pyridin-3-yl]oxy}-7-(tetrahydro-2H-pyran-4-yloxy)-1H-indol-2-yl]-4,5-dihydro-1,3-thiazol-5-yl}acetamide], which melting point is on record?
Its melting point is 157 to 158 °C.

— patent US8557805B2, “Fused ring compound and use thereof” (Takeda Pharmaceutical Company Limited, priority 2008, dated 2013)
